These results are taken from patent publication US7402610B2, “Carbonyl compound containing long-chain branched alkyl group” (Idemitsu Kosan Co., Ltd., priority 2004, dated 2008).

Holding throughout (assay type): physicochemical
Data set [1] can be described thus: Pour point, JIS K2269. How it is done: The pour point of 3-octyl-tridecanoic acid was measured in accordance with JIS K2269. The pour point was determined to be −37° C. On the other hand, the pour point of a similar compound isostearic acid (2-n-heptylundecanoic acid) was −20° C. (“14303 Chemical Products”, The Chemical Daily Co., Ltd.). Another similar compound 2-octyldodecanoic acid was a solid having a melting point of 35° C.
The pour point which indicates the characteristics of the ester of the invention was measured in accordance with JIS K2269.

Data set [2] is described as follows: Low temperature fluidity on cooling. The settings on record: cooled to −20° C.
Data set [3] is described as follows: Oxidation stability test, JIS K2514, kinematic viscosity before and after heating. Particulars: for Change in kinematic viscosity (at 40° C.) / Change in kinematic viscosity (at 100° C.): after/before heating at 140° C. for 24 hours. How it is done: The oxidation stability of the above synthesized triester was tested and the viscosity before and after testing was measured. The oxidation stability test was conducted in accordance with JIS K2514, wherein the kinematic viscosity was measured at 40° C. and 100° C. after heating for 24 hours at 140° C. in the presence of copper and steel catalysts. The compounds showing a small change (increase) in kinematic viscosity were regarded as excelling in oxidation stability.

The nature of data set [4]: Loss on heat (plasticizer evaluation), JIS K6751-4. The settings on record: heating at 125° C. for three hours. How it is done:
As the plasticizer evaluation, loss on heat was evaluated. In accordance with JIS K6751-4, the decrease in amount after heating at 125° C. for three hours was used as the heating loss.

Setting [5] is: after heating at 140° C. for 24 hours, copper and steel catalysts.

In turn, `CCCCCCCCCCC(CCCCCCCC)CC(=O)O` (centres unmarked) [Example 2, 3-octyl-tridecanoic acid] gave a Pour point in data set [1] of −37 °C. Further, in data set [2], the Fluidity when cooled entry is “did not decrease”.
For `CCCCCCCCCCC(CCCCCCCC)CC(=O)OC` (centres unmarked) [Example 1, methyl 3-octyl-tridecanoate], in data set [2], the Fluidity when cooled entry is listed as “did not decrease”.
For the compound `CCCCCCCC/C=C\CCCCCCCC(=O)OCCCCCCCC` [Comparative Example 4, octyl oleate, reference compound], the “Kinematic viscosity at 40° C.” value in data set [3] (setting [5]) came to 19.89 mm^2/s; in data set [3] (before heating), 15.33 mm^2/s. For the same compound, the “Change in kinematic viscosity (at 40° C.)” value (shortened to “Change … (at 40° C.)”) in data set [3] was 1.29. In addition, the “Decrease in amount after heating (%)” value in data set [4] was determined as 0.30%.
In the case of `CCCCCCCCCCC(CCCCCCCC)CC(=O)OCCCCCCCC` (centres unmarked) [Example 7, octyl 3-octyl-tridecanoate], the entries for the “Kinematic viscosity at 40° C.” value in data set [3] (setting [5]) and in data set [3] (before heating) were 21.74 mm^2/s and 20.08 mm^2/s, respectively. For the same compound, the “Change … (at 40° C.)” value in data set [3] came out at 1.04. Moreover, the “Decrease in amount after heating (%)” value in data set [4] was found to be 0.10%.
Consider “trimethylolpropane trioleate [Comparative Example 2, reference compound]”, for which, in data set [3] (setting [5]), the “Kinematic viscosity at 40° C.” value is recorded as 60.91 mm^2/s and the “Kinematic viscosity at 100° C.” value is 11.24 mm^2/s. Further, in data set [3], the “Change … (at 40° C.)” value is reported as 1.27 and the “Change in kinematic viscosity (at 100° C.)” value was found to be 1.16. In data set [3] (before heating), the “Kinematic viscosity at 40° C.” value is 47.96 mm^2/s and the “Kinematic viscosity at 100° C.” value was determined as 9.66 mm^2/s. In data set [1], this compound yielded a Pour point of −47.5 °C.
On to `CCCCCCCCCCC(CC=O)CCCCCCCC` (centres unmarked) [Example 3, 3-octyl-tridecanal], for which, in data set [2], the Fluidity when cooled result is given as “has the fluidity”.
As to “trimethylolpropane tri(3-octyl-tridecanoate) [Example 4]”, in data set [3] (setting [5]), the “Kinematic viscosity at 40° C.” value was found to be 67.28 mm^2/s and the “Kinematic viscosity at 100° C.” value was found to be 10.24 mm^2/s. Also, in data set [3], the “Change … (at 40° C.)” value is given as 1.07 and the “Change in kinematic viscosity (at 100° C.)” value stood at 1.03. In data set [3] (before heating), the “Kinematic viscosity at 40° C.” value was 62.76 mm^2/s and the “Kinematic viscosity at 100° C.” value stood at 9.95 mm^2/s. Further, the Pour point in data set [1] is −50 or less ° C.
